According to the supplement of paper PMC10307832:

Assays:
Experiment in all cases: relative viability (nuclei count vs DMSO), 5 days (fraction); higher = more cells survive
NCI-H2342 = tested on: NCI-H2342
Outline: (§1)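 The day after seeding in 1536-well plates, lung cancer cell lines were treated by pin tool with a single drug, or with a fixed anchor-drug dose together with five library-drug doses (not always all listed) in √10 steps. After 5 days, a combined fix-and-stain solution (final 0.05% Triton X-100, 1% formaldehyde, 1 ug/ml Hoechst) was added. Nuclei counted on 4× images gave relative viability as treated counts over vehicle counts, reported as the median of duplicate plates.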

PC-14 = tested on: PC-14
Outline: as §1

LK-2 = tested on: LK-2
Outline: as §1

NCI-H647 = tested on: NCI-H647
Outline: as §1

NCI-H460 = tested on: NCI-H460
Outline: as §1

NCI-H1975 = tested on: NCI-H1975
Outline: as §1

NCI-H1355 = tested on: NCI-H1355
Outline: as §1

NCI-H838 = tested on: NCI-H838
Outline: as §1

NCI-H322M = tested on: NCI-H322M
Outline: as §1

NCI-H1915 = tested on: NCI-H1915
Outline: as §1

EMC-BAC-2 = tested on: EMC-BAC-2
Outline: as §1

NCI-H2126 = tested on: NCI-H2126
Outline: as §1

NCI-H1437 = tested on: NCI-H1437
Outline: as §1

SW 900 = tested on: SW 900
Outline: as §1

NCI-H1755 = tested on: NCI-H1755
Outline: as §1

NCI-H1666 = tested on: NCI-H1666
Outline: as §1

LCLC-103H = tested on: LCLC-103H
Outline: as §1

NCI-H2085 = tested on: NCI-H2085
Outline: as §1

NCI-H3122 = tested on: NCI-H3122
Outline: as §1

NCI-H1944 = tested on: NCI-H1944
Outline: as §1

RERF-LC-KJ = tested on: RERF-LC-KJ
Outline: as §1

SK-LU-1 = tested on: SK-LU-1
Outline: as §1

Q: `C=C1C(=O)O[C@@H](CCCCCCCC)[C@@H]1C(=O)O` [C-75] + Cc1nc(Nc2ncc(C(=O)Nc3c(C)cccc3Cl)s2)cc(N2CCN(CCO)CC2)n1 [Dasatinib] (partner 0.075 µM) was tested. Which relative viability (NCI-H2342; first compound 0.08 µM) did it give?
A: 0.3

Q: What about the relative viability (NCI-H2342; first compound 0.253 µM) of the same molecule?
A: 0.314

Q: What about the relative viability (NCI-H2342; first compound 0.8 µM) of the same molecule?
A: 0.301

Q: What about the relative viability (NCI-H2342; first compound 2.53 µM) of the same molecule?
A: 0.327

Q: What about the relative viability (NCI-H2342; first compound 8 µM) of the same molecule?
A: 0.316

Q: And the relative viability (PC-14; first compound 0.08 µM)?
A: 0.292

Q: What about the relative viability (PC-14; first compound 0.253 µM) of the same molecule?
A: 0.227

Q: And the relative viability (PC-14; first compound 0.8 µM)?
A: 0.27

Q: What about the relative viability (PC-14; first compound 2.53 µM) of the same molecule?
A: 0.272

Q: And the relative viability (PC-14; first compound 8 µM)?
A: 0.222

Q: What about the relative viability (LK-2; first compound 0.08 µM) of the same molecule?
A: 0.388

Q: What about the relative viability (LK-2; first compound 0.253 µM) of the same molecule?
A: 0.433

Q: And the relative viability (LK-2; first compound 0.8 µM)?
A: 0.309

Q: And the relative viability (LK-2; first compound 2.53 µM)?
A: 0.237

Q: And the relative viability (LK-2; first compound 8 µM)?
A: 0.291

Q: And the relative viability (NCI-H647; first compound 0.08 µM)?
A: 0.227

Q: What about the relative viability (NCI-H647; first compound 0.253 µM) of the same molecule?
A: 0.114

Q: What about the relative viability (NCI-H647; first compound 0.8 µM) of the same molecule?
A: 0.172

Q: What about the relative viability (NCI-H647; first compound 2.53 µM) of the same molecule?
A: 0.143

Q: What about the relative viability (NCI-H647; first compound 8 µM) of the same molecule?
A: 0.219

Q: And the relative viability (NCI-H460; first compound 0.08 µM)?
A: 0.592

Q: And the relative viability (NCI-H460; first compound 0.253 µM)?
A: 0.364

Q: And the relative viability (NCI-H460; first compound 0.8 µM)?
A: 0.415

Q: And the relative viability (NCI-H460; first compound 2.53 µM)?
A: 0.258

Q: And the relative viability (NCI-H460; first compound 8 µM)?
A: 0.383

Q: What about the relative viability (NCI-H1975; first compound 0.08 µM) of the same molecule?
A: 0.364

Q: And the relative viability (NCI-H1975; first compound 0.253 µM)?
A: 0.432

Q: What about the relative viability (NCI-H1975; first compound 0.8 µM) of the same molecule?
A: 0.318

Q: What about the relative viability (NCI-H1975; first compound 2.53 µM) of the same molecule?
A: 0.324

Q: And the relative viability (NCI-H1975; first compound 8 µM)?
A: 0.404

Q: What about the relative viability (NCI-H1355; first compound 0.08 µM) of the same molecule?
A: 0.71

Q: What about the relative viability (NCI-H1355; first compound 0.253 µM) of the same molecule?
A: 0.613

Q: What about the relative viability (NCI-H1355; first compound 0.8 µM) of the same molecule?
A: 0.702

Q: What about the relative viability (NCI-H1355; first compound 2.53 µM) of the same molecule?
A: 0.649

Q: What about the relative viability (NCI-H1355; first compound 8 µM) of the same molecule?
A: 0.775

Q: And the relative viability (NCI-H838; first compound 0.08 µM)?
A: 0.242

Q: And the relative viability (NCI-H838; first compound 0.253 µM)?
A: 0.239

Q: What about the relative viability (NCI-H838; first compound 0.8 µM) of the same molecule?
A: 0.274

Q: What about the relative viability (NCI-H838; first compound 2.53 µM) of the same molecule?
A: 0.26

Q: And the relative viability (NCI-H838; first compound 8 µM)?
A: 0.268

Q: What about the relative viability (NCI-H322M; first compound 0.08 µM) of the same molecule?
A: 0.241

Q: What about the relative viability (NCI-H322M; first compound 0.253 µM) of the same molecule?
A: 0.244

Q: And the relative viability (NCI-H322M; first compound 0.8 µM)?
A: 0.272

Q: What about the relative viability (NCI-H322M; first compound 2.53 µM) of the same molecule?
A: 0.198

Q: And the relative viability (NCI-H322M; first compound 8 µM)?
A: 0.313

Q: What about the relative viability (NCI-H1915; first compound 0.08 µM) of the same molecule?
A: 0.343

Q: What about the relative viability (NCI-H1915; first compound 0.253 µM) of the same molecule?
A: 0.304

Q: What about the relative viability (NCI-H1915; first compound 0.8 µM) of the same molecule?
A: 0.311

Q: And the relative viability (NCI-H1915; first compound 2.53 µM)?
A: 0.289

Q: And the relative viability (NCI-H1915; first compound 8 µM)?
A: 0.383

Q: What about the relative viability (EMC-BAC-2; first compound 0.08 µM) of the same molecule?
A: 0.37

Q: What about the relative viability (EMC-BAC-2; first compound 0.253 µM) of the same molecule?
A: 0.313

Q: What about the relative viability (EMC-BAC-2; first compound 0.8 µM) of the same molecule?
A: 0.283

Q: And the relative viability (EMC-BAC-2; first compound 2.53 µM)?
A: 0.261

Q: And the relative viability (EMC-BAC-2; first compound 8 µM)?
A: 0.276

Q: What about the relative viability (NCI-H2126; first compound 0.08 µM) of the same molecule?
A: 0.665

Q: And the relative viability (NCI-H2126; first compound 0.253 µM)?
A: 0.657

Q: And the relative viability (NCI-H2126; first compound 0.8 µM)?
A: 0.576

Q: And the relative viability (NCI-H2126; first compound 2.53 µM)?
A: 0.448

Q: What about the relative viability (NCI-H2126; first compound 8 µM) of the same molecule?
A: 0.586

Q: What about the relative viability (NCI-H1437; first compound 0.08 µM) of the same molecule?
A: 0.4

Q: And the relative viability (NCI-H1437; first compound 0.253 µM)?
A: 0.381

Q: What about the relative viability (NCI-H1437; first compound 0.8 µM) of the same molecule?
A: 0.367

Q: And the relative viability (NCI-H1437; first compound 2.53 µM)?
A: 0.298

Q: What about the relative viability (NCI-H1437; first compound 8 µM) of the same molecule?
A: 0.458

Q: And the relative viability (SW 900; first compound 0.08 µM)?
A: 0.531

Q: And the relative viability (SW 900; first compound 0.253 µM)?
A: 0.796

Q: What about the relative viability (SW 900; first compound 0.8 µM) of the same molecule?
A: 0.829

Q: And the relative viability (SW 900; first compound 2.53 µM)?
A: 0.548

Q: And the relative viability (SW 900; first compound 8 µM)?
A: 0.449

Q: And the relative viability (NCI-H1755; first compound 0.08 µM)?
A: 0.42

Q: And the relative viability (NCI-H1755; first compound 0.253 µM)?
A: 0.33

Q: What about the relative viability (NCI-H1755; first compound 0.8 µM) of the same molecule?
A: 0.404

Q: What about the relative viability (NCI-H1755; first compound 2.53 µM) of the same molecule?
A: 0.259

Q: What about the relative viability (NCI-H1755; first compound 8 µM) of the same molecule?
A: 0.43

Q: And the relative viability (NCI-H1666; first compound 0.08 µM)?
A: 0.836

Q: And the relative viability (NCI-H1666; first compound 0.253 µM)?
A: 0.779

Q: And the relative viability (NCI-H1666; first compound 0.8 µM)?
A: 0.74

Q: What about the relative viability (NCI-H1666; first compound 2.53 µM) of the same molecule?
A: 0.719

Q: What about the relative viability (NCI-H1666; first compound 8 µM) of the same molecule?
A: 0.711

Q: And the relative viability (LCLC-103H; first compound 0.08 µM)?
A: 0.445

Q: And the relative viability (LCLC-103H; first compound 0.253 µM)?
A: 0.451

Q: And the relative viability (LCLC-103H; first compound 0.8 µM)?
A: 0.511

Q: And the relative viability (LCLC-103H; first compound 2.53 µM)?
A: 0.351

Q: And the relative viability (LCLC-103H; first compound 8 µM)?
A: 0.524

Q: What about the relative viability (NCI-H2085; first compound 0.08 µM) of the same molecule?
A: 0.264

Q: And the relative viability (NCI-H2085; first compound 0.253 µM)?
A: 0.309

Q: What about the relative viability (NCI-H2085; first compound 0.8 µM) of the same molecule?
A: 0.284

Q: And the relative viability (NCI-H2085; first compound 2.53 µM)?
A: 0.266

Q: And the relative viability (NCI-H2085; first compound 8 µM)?
A: 0.259

Q: What about the relative viability (NCI-H3122; first compound 0.08 µM) of the same molecule?
A: 0.832

Q: And the relative viability (NCI-H3122; first compound 0.253 µM)?
A: 0.798

Q: And the relative viability (NCI-H3122; first compound 0.8 µM)?
A: 0.583

Q: What about the relative viability (NCI-H3122; first compound 2.53 µM) of the same molecule?
A: 0.594

Q: And the relative viability (NCI-H3122; first compound 8 µM)?
A: 0.742

Q: What about the relative viability (NCI-H1944; first compound 0.08 µM) of the same molecule?
A: 0.234

Q: And the relative viability (NCI-H1944; first compound 0.253 µM)?
A: 0.169

Q: What about the relative viability (NCI-H1944; first compound 0.8 µM) of the same molecule?
A: 0.193

Q: What about the relative viability (NCI-H1944; first compound 8 µM) of the same molecule?
A: 0.225

Q: What about the relative viability (RERF-LC-KJ; first compound 0.08 µM) of the same molecule?
A: 0.917

Q: And the relative viability (RERF-LC-KJ; first compound 0.253 µM)?
A: 0.901

Q: What about the relative viability (RERF-LC-KJ; first compound 0.8 µM) of the same molecule?
A: 0.819

Q: And the relative viability (RERF-LC-KJ; first compound 2.53 µM)?
A: 0.682

Q: And the relative viability (RERF-LC-KJ; first compound 8 µM)?
A: 0.798

Q: What about the relative viability (SK-LU-1; first compound 0.08 µM) of the same molecule?
A: 0.168

Q: And the relative viability (SK-LU-1; first compound 0.253 µM)?
A: 0.175

Q: And the relative viability (SK-LU-1; first compound 0.8 µM)?
A: 0.166

Q: And the relative viability (SK-LU-1; first compound 2.53 µM)?
A: 0.127

Q: What about the relative viability (SK-LU-1; first compound 8 µM) of the same molecule?
A: 0.172
